We go through 20 compounds from patent US10738030B2, “Modulators of cystic fibrosis transmembrane conductance regulator” (Vertex Pharmaceuticals Incorporated, priority 2016, dated 2020).

The assay has as its target T1, F508del (Homo sapiens, UniProt P13569, DEL508-508).
T1 construct: expressed in transfected cells
Nature of the assay: Membrane potential optical assay (FRET voltage-sensor dyes), identification of correction compounds. It is filed as cell-based. The following applies: NIH3T3 cells stably expressing F508del, procedures described above; for Emax: maximum efficacy, read-out: Max Efficacy; for EC50: modulation of CFTR activity. As for the experimental part: (§1) NIH3T3 mouse fibroblasts stably expressing F508del are used for optical measurements of membrane potential. The cells are maintained at 37° C. in 5% CO2 and 90% humidity in Dulbecco's modified Eagle's medium supplemented with 2 mM glutamine, 10% fetal bovine serum, 1×NEAA, β-ME, 1× pen/strep, and 25 mM HEPES in 175 cm^2 culture flasks. For all optical assays, the cells were seeded at 12,000 cells/well in 384-well matrigel-coated plates and cultured for 18-24 hrs at 37° C. for the potentiator assay. For the correction assays, the cells are cultured at 37° C. with and without compounds for 18-24 hours.
Membrane potential optical methods for assaying F508del modulation properties of compounds.
The optical membrane potential assay utilized voltage-sensitive FRET sensors described by Gonzalez and Tsien (See Gonzalez, J. E. and R. Y. Tsien (1995) “Voltage sensing by fluorescence resonance energy transfer in single cells” Biophys J 69(4): 1272-80, and Gonzalez, J. E. and R. Y. Tsien (1997) “Improved indicators of cell membrane potential that use fluorescence resonance energy transfer” Chem Biol 4(4): 269-77) in combination with instrumentation for measuring fluorescence changes such as the Voltage/Ion Probe Reader (VIPR) (See, Gonzalez, J. E., K. Oades, et al. (1999) “Cell-based assays and instrumentation for screening ion-channel targets” Drug Discov Today 4(9): 431-439).
These voltage sensitive assays are based on the change in fluorescence resonant energy transfer (FRET) between the membrane-soluble, voltage-sensitive dye, DiSBAC2(3), and a fluorescent phospholipid, CC2-DMPE, which is attached to the outer leaflet of the plasma membrane and acts as a FRET donor. Changes in membrane potential (Vm) cause the negatively charged DiSBAC2(3) to redistribute across the plasma membrane and the amount of energy transfer from CC2-DMPE changes accordingly. The changes in fluorescence emission were monitored using VIPR™ II, which is an integrated liquid handler and fluorescent detector designed to conduct cell-based screens in 96- or 384-well microtiter plates.
To identify small molecules that correct the trafficking defect associated with F508del; a single-addition HTS assay format was developed. The cells were incubated in serum-free medium for 16 hrs at 37° C. in the presence or absence (negative control) of test compound. As a positive control, cells plated in 384-well plates were incubated for 16 hrs at 27° C. to “temperature-correct” F508del. The cells were subsequently rinsed 3× with Krebs Ringers solution and loaded with the voltage-sensitive dyes. To activate F508del, 10 μM forskolin and the CFTR potentiator, genistein (20 μM), were added along with Cl^−-free medium to each well. The addition of Cl^−-free medium promoted Cl^− efflux in response to F508del activation and the resulting membrane depolarization was optically monitored using the FRET-based voltage-sensor dyes.
• Bath Solution #1: (in mM) NaCl 160, KCl 4.5, CaCl2 2, MgCl2 1, HEPES 10, pH 7.4 with NaOH. • Chloride-free bath solution: Chloride salts in Bath Solution #1 (above) are substituted with gluconate salts. • CC2-DMPE: Prepared as a 10 mM stock solution in DMSO and stored at −20° C. • DiSBAC2(3): Prepared as a 10 mM stock in DMSO and stored at −20° C. Cell Culture
as §1, with “seeded at 30,000/well in 384-well” for “seeded at 12,000 cells/well in 384-well”, “cultured for 2 hrs at” for “cultured for 18-24 hrs at”, “37° C. before culturing at 27° C. for 24 hrs for the” for “37° C. for the”, “cultured at 27° C. or 37° C.” for “cultured at 37° C.”, “compounds for 16-24 hours.” for “compounds for 18-24 hours.”

T1 sequence (P13569 with tags, fused parts or gaps DEL508-508): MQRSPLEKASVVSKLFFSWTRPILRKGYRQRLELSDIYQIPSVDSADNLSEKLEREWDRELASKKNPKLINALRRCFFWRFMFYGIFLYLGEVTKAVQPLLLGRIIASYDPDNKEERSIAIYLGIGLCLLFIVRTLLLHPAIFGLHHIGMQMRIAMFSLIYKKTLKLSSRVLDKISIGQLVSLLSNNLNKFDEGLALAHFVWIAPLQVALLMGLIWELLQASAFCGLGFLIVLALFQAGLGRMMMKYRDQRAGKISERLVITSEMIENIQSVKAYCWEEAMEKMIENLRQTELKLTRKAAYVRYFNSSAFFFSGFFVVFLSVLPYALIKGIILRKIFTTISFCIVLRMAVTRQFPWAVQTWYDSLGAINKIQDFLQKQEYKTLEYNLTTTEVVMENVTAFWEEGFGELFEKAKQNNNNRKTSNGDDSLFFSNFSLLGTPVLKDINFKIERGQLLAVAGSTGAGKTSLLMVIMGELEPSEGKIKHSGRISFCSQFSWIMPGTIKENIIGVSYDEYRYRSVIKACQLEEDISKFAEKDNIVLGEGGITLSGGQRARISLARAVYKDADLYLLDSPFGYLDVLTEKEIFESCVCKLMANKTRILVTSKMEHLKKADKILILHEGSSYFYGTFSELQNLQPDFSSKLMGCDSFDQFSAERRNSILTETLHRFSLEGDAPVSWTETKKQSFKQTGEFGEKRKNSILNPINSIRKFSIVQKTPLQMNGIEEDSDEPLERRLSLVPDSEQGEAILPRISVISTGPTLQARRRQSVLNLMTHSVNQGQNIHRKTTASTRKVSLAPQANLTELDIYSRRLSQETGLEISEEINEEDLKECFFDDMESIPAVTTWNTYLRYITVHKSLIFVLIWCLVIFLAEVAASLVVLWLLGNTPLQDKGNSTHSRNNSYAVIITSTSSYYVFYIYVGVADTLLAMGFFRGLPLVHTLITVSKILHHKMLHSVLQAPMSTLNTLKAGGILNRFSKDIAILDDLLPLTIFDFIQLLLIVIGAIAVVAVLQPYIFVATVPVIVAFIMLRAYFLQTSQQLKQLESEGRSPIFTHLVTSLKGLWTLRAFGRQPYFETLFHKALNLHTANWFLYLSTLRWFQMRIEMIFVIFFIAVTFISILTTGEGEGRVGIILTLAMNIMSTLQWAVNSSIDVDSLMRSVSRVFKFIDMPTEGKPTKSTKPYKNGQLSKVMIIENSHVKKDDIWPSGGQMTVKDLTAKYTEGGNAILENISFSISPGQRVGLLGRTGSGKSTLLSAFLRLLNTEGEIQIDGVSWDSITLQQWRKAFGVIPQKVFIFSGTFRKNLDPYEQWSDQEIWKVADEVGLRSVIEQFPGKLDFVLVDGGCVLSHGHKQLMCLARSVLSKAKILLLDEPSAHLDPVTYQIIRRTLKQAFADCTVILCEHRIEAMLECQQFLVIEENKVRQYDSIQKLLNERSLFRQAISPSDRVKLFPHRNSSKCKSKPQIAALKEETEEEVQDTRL

`CCC(C)C(C)Oc1nc(-c2cc(F)cc(OCC(C)C)c2)ccc1C(=O)NS(=O)(=O)c1cccc(N)n1` (stereo not shown) [Compound 12, N-[(6-amino-2-pyridyl)sulfonyl]-2-(1,2-dimethylbutoxy)-6-(3-fluoro-5-isobutoxy-phenyl)pyridine-3-carboxamide]: the Emax is > 80% and the concentration for a half-maximal effect (EC50) was < 3 µM.
With `CCOCCOc1nc(-c2cc(F)cc(OCC(C)C)c2)ccc1C(=O)NS(=O)(=O)c1cccc(N)n1` [Compound 13, N-[(6-amino-2-pyridyl)sulfonyl]-2-(2-ethoxyethoxy)-6-(3-fluoro-5-isobutoxy-phenyl)pyridine-3-carboxamide], the Emax lay within 30 to 80% and the EC50 is < 3 µM.
For `CCN(c1nc(-c2ccc(OC(C)C)nc2)ccc1C(=O)NS(=O)(=O)c1cccc(N)n1)C(C)C` [Compound 14, N-[(6-amino-2-pyridyl)sulfonyl]-2-[ethyl(isopropyl)amino]-6-(6-isopropoxy-3-pyridyl)pyridine-3-carboxamide], the Emax lay in the range of 30 to 80% and the EC50 is < 3 µM.
On to `CC(C)(C)COc1nc(C(C)(C)C)ccc1C(=O)NS(=O)(=O)c1cccc(N)n1` [Compound 15, N-[(6-amino-2-pyridyl)sulfonyl]-6-tert-butyl-2-(2,2-dimethylpropoxy)pyridine-3-carboxamide], for which the Emax lay in the range of 30 to 80% and the EC50 is < 3 µM.
In the case of `CCN(c1nc(-c2cc(F)cc(OCC(C)C)c2)ccc1C(=O)NS(=O)(=O)c1ccn[nH]1)C(C)C` [Compound 16, 2-[ethyl(isopropyl)amino]-6-(3-fluoro-5-isobutoxy-phenyl)-N-(1H-pyrazol-5-ylsulfonyl)pyridine-3-carboxamide], the Emax is > 80% and the EC50 was < 3 µM.
For `CC(C)COc1cc(F)cc(-c2ccc(C(=O)NS(=O)(=O)c3cccc(N)n3)c(N(C)[C@@H](C)C(F)(F)F)n2)c1` [Compound 17, N-[(6-amino-2-pyridyl)sulfonyl]-6-(3-fluoro-5-isobutoxy-phenyl)-2-[methyl-[(1 S)-2,2,2-trifluoro-1-methyl-ethyl]amino]pyridine-3-carboxamide], the Emax was > 80% and the EC50 is < 3 µM.
`CCC(COC)Oc1nc(-c2cc(F)cc(OCC(C)C)c2)ccc1C(=O)NS(=O)(=O)c1cccc(N)n1` (stereo not shown) [Compound 18, N-[(6-amino-2-pyridyl)sulfonyl]-6-(3-fluoro-5-isobutoxy-phenyl)-2-[1-(methoxymethyl)propoxy]pyridine-3-carboxamide]: the Emax fell in the range of 30 to 80% and the concentration for a half-maximal effect (EC50) was < 3 µM.
In the case of `CC(C)COc1cc(F)cc(-c2ccc(C(=O)NS(=O)(=O)c3cccc(N)n3)c(N(C)C)n2)c1` [Compound 19, N-[(6-amino-2-pyridyl)sulfonyl]-2-(dimethylamino)-6-(3-fluoro-5-isobutoxy-phenyl)pyridine-3-carboxamide], the Emax is > 80% and the EC50 is < 3 µM.
Turning to `COC[C@H](C)Oc1nc(-c2cc(F)cc(OCC(C)C)c2)ccc1C(=O)NS(=O)(=O)c1cccc(N)n1` [Compound 20, N-[(6-amino-2-pyridyl)sulfonyl]-6-(3-fluoro-5-isobutoxy-phenyl)-2-[(1S)-2-methoxy-1-methyl-ethoxy]pyridine-3-carboxamide], the Emax lay within 30 to 80% and the EC50 was < 3 µM.
On to `COCCCOc1nc(-c2cc(F)cc(OCC(C)C)c2)ccc1C(=O)NS(=O)(=O)c1cccc(N)n1` [Compound 21, N-[(6-amino-2-pyridyl)sulfonyl]-6-(3-fluoro-5-isobutoxy-phenyl)-2-(3-methoxypropoxy)pyridine-3-carboxamide], for which the Emax lay in the range of 30 to 80% and the EC50 is < 3 µM.
Consider `COC(C)(C)CCOc1nc(-c2cc(F)cc(OCC(C)C)c2)ccc1C(=O)NS(=O)(=O)c1cccc(N)n1` [Compound 22, N-[(6-amino-2-pyridyl)sulfonyl]-6-(3-fluoro-5-isobutoxy-phenyl)-2-(3-methoxy-3-methyl-butoxy)pyridine-3-carboxamide], for which the Emax was in the range of 30 to 80% and the EC50 is < 3 µM.
`COCC(C)Oc1nc(-c2cc(F)cc(OCC(C)C)c2)ccc1C(=O)NS(=O)(=O)c1cccc(N)n1` (stereo not shown) [Compound 23, N-[(6-amino-2-pyridyl)sulfonyl]-6-(3-fluoro-5-isobutoxy-phenyl)-2-(2-methoxy-1-methyl-ethoxy)pyridine-3-carboxamide]: the Emax lay in the range of 30 to 80% and the EC50 was in the range of 3 to 10 µM.
The like results for `CC(C)COc1cc(F)cc(-c2ccc(C(=O)NS(=O)(=O)c3cccc(N)n3)c(OC(C)CC(C)C)n2)c1` (stereo not shown) [Compound 24, N-[(6-amino-2-pyridyl)sulfonyl]-2-(1,3-dimethylbutoxy)-6-(3-fluoro-5-isobutoxy-phenyl)pyridine-3-carboxamide] were, in that order, > 80% and < 3 µM.
Turning to `CC(C)COc1cc(F)cc(-c2ccc(C(=O)NS(=O)(=O)c3cccc(N)n3)c(OC(C)C(C)(C)C)n2)c1` (stereo not shown) [Compound 25, N-[(6-amino-2-pyridyl)sulfonyl]-6-(3-fluoro-5-isobutoxy-phenyl)-2-(1,2,2-trimethylpropoxy)pyridine-3-carboxamide], the Emax fell in the range of 30 to 80% and the EC50 was < 3 µM.
As for `CC(C)COc1cc(F)cc(-c2ccc(C(=O)NS(=O)(=O)c3cccc(N)n3)c(OC(C(C)C)C(C)C)n2)c1` [Compound 26, N-[(6-amino-2-pyridyl)sulfonyl]-6-(3-fluoro-5-isobutoxy-phenyl)-2-(1-isopropyl-2-methyl-propoxy)pyridine-3-carboxamide], the Emax lay within 30 to 80% and the EC50 was < 3 µM.
On to `CCCOc1nc(-c2cc(F)cc(OCC(C)C)c2)ccc1C(=O)NS(=O)(=O)c1cccc(N)n1` [Compound 27, N-[(6-amino-2-pyridyl)sulfonyl]-6-(3-fluoro-5-isobutoxy-phenyl)-2-propoxy-pyridine-3-carboxamide], for which the Emax is > 80% and the EC50 was < 3 µM.
Take `C/C=C/COc1nc(-c2cc(F)cc(OCC(C)C)c2)ccc1C(=O)NS(=O)(=O)c1cccc(N)n1` [Compound 28, N-[(6-amino-2-pyridyl)sulfonyl]-2-[(E)-but-2-enoxy]-6-(3-fluoro-5-isobutoxy-phenyl)pyridine-3-carboxamide]: the Emax is 30 to 80% and the EC50 is < 3 µM.
In the case of `CC[C@H](C)Oc1nc(-c2cc(F)cc(OCC(C)C)c2)ccc1C(=O)NS(=O)(=O)c1cccc(N)n1` [Compound 29, N-[(6-amino-2-pyridyl)sulfonyl]-6-(3-fluoro-5-isobutoxy-phenyl)-2-[(1S)-1-methylpropoxy]pyridine-3-carboxamide], the Emax is 30 to 80% and the EC50 is < 3 µM.
Regarding `CCOc1nc(-c2cc(F)cc(OCC(C)C)c2)ccc1C(=O)NS(=O)(=O)c1cccc(N)n1` [Compound 30, N-[(6-amino-2-pyridyl)sulfonyl]-2-ethoxy-6-(3-fluoro-5-isobutoxy-phenyl)pyridine-3-carboxamide], the Emax lay within 30 to 80% and the EC50 was < 3 µM.
Take `CC(C)COc1cc(F)cc(-c2ccc(C(=O)NS(=O)(=O)c3cccc(N)n3)c(N(C)C(C)C)n2)c1` [Compound 31, N-[(6-amino-2-pyridyl)sulfonyl]-6-(3-fluoro-5-isobutoxy-phenyl)-2-[isopropyl(methyl)amino]pyridine-3-carboxamide]: the Emax was > 80% and the EC50 was < 3 µM.

The EC50 is the concentration needed to bring the measured effect to its halfway point.
